The source made the active and inactive calls. No rule for the calls is given here.
target: 3C-like protease (3CLpro), SARS coronavirus; test: SARS 3CLpro protease inhibitor potency, late-stage follow-up, biochemical, fluorescence, dose response, set 3 (AID 588771); conditions: purified 3CLpro, fluorogenic substrate cleavage

Question: `CC(C)(C)NC(=O)C(c1cccnc1)N(C(=O)c1ccco1)c1ccc(Cc2ccccc2)cc1` (stereo not given) was tested. Which IC50 did it give?
Answer: inactive

Question: For `Cn1cnc(C(=O)N(c2ccc(C(C)(C)C)cc2)C(C(=O)NC(C)(C)C)c2cccnc2)c1` (stereo not given), which IC50 is on record?
Answer: inactive

Question: How did the IC50 turn out when `CC(C)(C)NC(=O)[C@H](c1cccnc1)N(C(=O)c1cnc[nH]1)c1ccc(C(C)(C)C)cc1` was run?
Answer: 4.5 µM

Question: How did the IC50 turn out when `O=C(Nc1ccc(N(C(=O)Cn2nnc3ccccc32)C(C(=O)NCc2ccccc2)c2cccc(F)c2)cc1)C1CC1` (stereo not given) was run?
Answer: 3 µM

Question: Which IC50 does the source give for `CC(C)(C)NC(=O)C(c1cnccn1)N(C(=O)c1ccco1)c1ccc(C(C)(C)C)cc1` (stereo not given) here?
Answer: 5.5 µM

Question: Which IC50 does the source give for `CC(C)C(=O)Nc1ccc(N(C(=O)Cn2nnc3ccccc32)C(C(=O)NCc2ccccc2)c2cccc(F)c2)cc1` (stereo not given) here?
Answer: 4.1 µM

Question: How did the IC50 turn out when `O=C(Nc1ccc(N(C(=O)Cn2nnc3ccccc32)C(C(=O)NCc2ccccc2)c2cccc(F)c2)cc1)C1CCC1` (stereo not given) was run?
Answer: 2.3 µM

Question: `CC(C)(C)NC(=O)[C@@H](c1cccnc1)N(C(=O)c1cnc[nH]1)c1ccc(C(C)(C)C)cc1` was tested. Which IC50 did it give?
Answer: inactive

Question: Which IC50 does the source give for `CC(C)(C)NC(=O)C(c1ccnnc1)N(C(=O)c1ccco1)c1ccc(C(C)(C)C)cc1` (stereo not given) here?
Answer: inactive

Question: For `CC(C)(C)NC(=O)C(c1ccncc1)N(C(=O)c1ccco1)c1ccc(C(C)(C)C)cc1` (stereo not given), which IC50 is on record?
Answer: inactive
